Test system: K562 cells
Experiment: Fluorescent in-cell reporter (FLICR) protein stability assay: turnover of C-terminally amidated sfGFP after nucleofection, followed by flow cytometry
Type: cell-based, human
Settings: for destabilization of sfGFP carrying a primary amide on its C-terminus (sfGFP-Pep1-Ser-NH2): Fig. 1C, inhibitor concentration not given; for Amidated sfGFP degradation: Fig. 2G
Experimental: HEK293T cells were cultured in DMEM containing Glutamax (Thermo Fisher Scientific) and K562 cells were cultured in RPMI 1640 containing Glutamax (Thermo Fisher Scientific) under standard conditions. Growth media were further supplemented with 10% (v/v) Fetal Bovine Serum (Thermo Fisher Scientific) and 100 U/ml Penicillin-Streptomycin (Thermo Fisher Scientific). Stably transduced cells were selected using 2 µg/ml Puromycin (Thermo Fisher Scientific), 500 µg/ml Gene-ticin (Thermo Fisher Scientific) or 10 µg/ml Blasticidin (Thermo Fisher Scientific) starting two days after transduction. Induction of doxycycline-dependent vectors was performed using 500 ng/ml doxycycline (Merck) every 48 hours. Cells were treated with epoxomicin (Merck), concanamycin A (Merck) or TAK243 (MedChem Express) as indicated.
For measuring stability of recombinant or semi-synthetic proteins, 1.5- 2.0 x 10^5 cells were nucleofected with 200 pmol of protein in 20 µl cuvettes using a 4D nucleofector device (Lonza) according to the manufacturer's recommendations. Following protein delivery, cells were left to recover at 37°C for 30-45 minutes before measuring initial mean fluorescence intensity values (t0) on a Attune NxT Flow Cytometer (Thermo Fisher Scientific). Subsequent measurements were performed at indicated time points. Baseline-fluorescence values of mock nucleofected cells receiving no protein were measured and subtracted for each time point and baseline-corrected fluorescence values were normalized to t0.
The effect of each modification on protein degradation was measured in the human erythroleukemia cell line K562, which allows for efficient and uniform protein delivery via nucleofection.
Lastly, conjugates of mTagBFP2 and mCherry carrying a primary C-terminal amide were also efficiently degraded when delivered to human embryonic kidney-derived HEK293T cells (Fig.1D and Fig 1E) establishing that C-terminal amidation induces protein degradation in different amino acid-, protein- and cell contexts.
The effect of each modification on protein degradation in the human erythroleukemia cell line K562 was measured. A fluorescent in-cell reporter assay was performed, in which individual semi-synthetic proteins were introduced by electroporation into human cells and their clearance over time was followed by flow cytometry.
This implies that C-terminal amide-bearing proteins (CTAPs) are actively cleared from cells by the ubiquitin proteasome system. CTAP forms of both mCherry and mTagBFP2, but not their unmodified counterparts, were also efficiently degraded when delivered to human embryonic kidney-derived HEK293T cells, as shown in Fig. 2H (see also the explanations above relating to Fig. 1E). The presence of a C-terminal amide is therefore sufficient to induce protein degradation in different peptide-, protein- and cell contexts.

SMILES: NS(=O)(=O)OC[C@H]1C[C@@H](Nc2ccnc3cc(-c4cccc(SC(F)(F)F)c4)nn23)[C@H](O)[C@@H]1O [TAK243]
- destabilization of sfGFP carrying a primary amide on its C-terminus (sfGFP-Pep1-Ser-NH2): fully blunted
- Amidated sfGFP degradation (TAK243 (1 µM) upon sfGFP delivery): prevented

SMILES: CC[C@H](C)[C@H](NC(=O)[C@H]([C@@H](C)CC)N(C)C(C)=O)C(=O)N[C@H](C(=O)N[C@@H](CC(C)C)C(=O)[C@@]1(C)CO1)[C@@H](C)O [epoxomicin]
- destabilization of sfGFP carrying a primary amide on its C-terminus (sfGFP-Pep1-Ser-NH2): fully blunted
- Amidated sfGFP degradation (epoxomicin (500 nM) upon sfGFP delivery): prevented

SMILES: C/C=C/[C@H]1O[C@@](O)([C@@H](C)[C@H](O)[C@H](C)[C@H]2OC(=O)/C(OC)=C/C(C)=C/[C@@H](C)[C@@H](O)[C@@H](CC)[C@@H](O)[C@H](C)C/C(C)=C/C=C/[C@@H]2OC)C[C@@H](O[C@H]2C[C@@H](O)[C@H](OC(N)=O)[C@@H](C)O2)[C@@H]1C [concanamycin A]
- destabilization of sfGFP carrying a primary amide on its C-terminus (sfGFP-Pep1-Ser-NH2): not by inhibition of lysosomal acidification
- Amidated sfGFP degradation (Folimycin (100 nM) upon sfGFP delivery): not by inhibition of lysosomal acidification

Source: patent EP4627105B1, “METHOD FOR IDENTIFYING A MODIFIED AMINO ACID DEGRON (MAAD)” (ETH Zurich, priority 2022, dated 2024)
